Data: paper PMC6290777, “Inhalation of the prodrug PI3K inhibitor CL27c improves lung function in asthma and fibrosis” (Nature Communications, 2018)
Several values for one entry are separate records, joined by “and”; a condition that tells them apart may be missing. Identical values can stand only once.

Assays:
[1] = tested on: AKT phosphorylation in IPF human lung fibroblasts; test: AKT phosphorylation of human lung fibroblasts; type: cell-based; details: IPF cells; CL27c 10 µM
Procedure: (§1) Human lung fibroblast cell culture
Two separate human lung fibroblast cell lines isolated from IPF patients were used: LL97a derived from a person (ATCC, Manassas, USA) and DHLF-IPF (#CC-7231, Lonza, Switzerland). Control cell lines were CCD-16Lu, obtained from a person that died of astrocytoma –a disease unrelated to IPF - (ATCC) and NHLF (#CC-2512; Lonza). LL97a and CCD-16Lu cells were cultured in Dulbecco's modified Eagles medium (DMEM, Sigma Aldrich, Dorset, UK). Media was supplemented with penicillin/streptomycin (100 U/ml, Thermo-Fischer, Germany) and 10% fetal bovine serum (FBS, Thermo-Fischer, Germany). Cells from Lonza were cultured in the FGMTM (#CC-3132, Lonza). […]
(§2) Caliper based assay, the reaction was terminated by addition of EDTA buffer. Substrate and product were separated and quantified electrophoretically using the microfluidic-based and the assay plate was read on Caliper LabChip 3000 Drug Discovery System from Caliper Life Sciences (Walthan, MA, USA). ADP Glo was another method of detection used for some kinase assays where data was obtained by quantifying the intensity of luminescence. For ADP Glo based assay, the reaction was terminated by applying the Promega ADP Glo Kinase Assay kit and the assay plate was read on a LJL Biosystems Analyst HT. […]

[2] = Microsomial stability, human; type: in vitro ADME; details: human liver microsomes, NADPH
Procedure: To define whether this prodrug was suitable for inhaled administration, CL27c was studied to evaluate selected ADME (absorption, distribution, metabolism, and excretion) and pharmacokinetic properties. First, stability of CL27c and CL27e was analyzed in mouse plasma (Supplementary Table 1) and in mouse, rat, and human liver microsomes in the presence of nicotinamide adenine dinucleotide phosphate (NADPH; Supplementary Table 2). Next, clearance of CL27c was analyzed in C57BL/6J mice after either intra-venous or oral administration. […] Clearance of CL27c and CL27e after oral administration could not be determined due to their low bioavailability (Supplementary Table 3). Next, pharmacokinetics after inhalation was studied in C57BL/6J mice after delivering an aerosolized micro-suspension of CL27c. As shown in Table 1 and Supplementary Fig. 1b, CL27c dose-dependently reached the lungs and its metabolite CL27e was detectable after inhalation of the highest dose. […] Therefore, the inhaled prodrug promotes local effects but prevents systemic absorption of pharmacologically relevant amounts of the active compound. […]
All tests for the microsomial stability of CL27c were conducted by the Istituto di Ricerche Biomediche (RBM) SpA – Merck Serono, Ivrea, Italy. […]
Then, cells […]
pretreated with different doses of CL27c were incubated at 37°C and 5% CO 2 for 10 minutes. […]

PI3Kα = biological target: T1, PI3Kα (Homo sapiens, UniProt P42336); test: Kinome profiling assay (Nanosyn 250-kinase panel); type: biochemical
T1 construct: purchased Nanosyn Biology, Inc., Santa Clara, CA, USA
T1 sequence (P42336 whole entry, species assumed): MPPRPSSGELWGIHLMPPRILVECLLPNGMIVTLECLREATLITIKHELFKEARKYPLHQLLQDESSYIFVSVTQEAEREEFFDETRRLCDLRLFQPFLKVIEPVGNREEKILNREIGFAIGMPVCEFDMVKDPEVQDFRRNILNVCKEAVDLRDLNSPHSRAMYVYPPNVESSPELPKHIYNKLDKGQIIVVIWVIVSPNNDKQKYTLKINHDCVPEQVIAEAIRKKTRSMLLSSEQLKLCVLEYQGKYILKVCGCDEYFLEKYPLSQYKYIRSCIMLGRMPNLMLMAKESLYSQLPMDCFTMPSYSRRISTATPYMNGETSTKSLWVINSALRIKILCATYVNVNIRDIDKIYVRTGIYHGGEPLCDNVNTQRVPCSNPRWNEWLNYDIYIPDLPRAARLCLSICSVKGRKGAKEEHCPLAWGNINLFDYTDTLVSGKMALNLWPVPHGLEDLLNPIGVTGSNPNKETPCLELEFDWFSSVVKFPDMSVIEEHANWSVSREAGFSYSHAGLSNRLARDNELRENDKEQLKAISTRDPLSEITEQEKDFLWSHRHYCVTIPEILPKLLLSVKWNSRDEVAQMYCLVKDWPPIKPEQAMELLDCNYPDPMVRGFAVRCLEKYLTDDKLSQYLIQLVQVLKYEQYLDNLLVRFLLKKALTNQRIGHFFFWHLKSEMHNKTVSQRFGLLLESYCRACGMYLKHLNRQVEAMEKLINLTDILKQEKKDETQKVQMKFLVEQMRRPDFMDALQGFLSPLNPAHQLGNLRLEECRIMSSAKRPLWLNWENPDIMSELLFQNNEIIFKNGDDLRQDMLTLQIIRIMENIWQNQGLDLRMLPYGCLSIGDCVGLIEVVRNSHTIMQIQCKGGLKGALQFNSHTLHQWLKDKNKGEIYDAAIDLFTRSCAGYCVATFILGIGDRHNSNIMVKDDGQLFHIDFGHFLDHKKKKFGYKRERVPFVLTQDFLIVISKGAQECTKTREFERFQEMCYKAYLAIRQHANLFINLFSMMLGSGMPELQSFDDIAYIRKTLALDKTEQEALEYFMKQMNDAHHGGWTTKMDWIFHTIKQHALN
T1 sequence (P27986 whole entry partner, species assumed): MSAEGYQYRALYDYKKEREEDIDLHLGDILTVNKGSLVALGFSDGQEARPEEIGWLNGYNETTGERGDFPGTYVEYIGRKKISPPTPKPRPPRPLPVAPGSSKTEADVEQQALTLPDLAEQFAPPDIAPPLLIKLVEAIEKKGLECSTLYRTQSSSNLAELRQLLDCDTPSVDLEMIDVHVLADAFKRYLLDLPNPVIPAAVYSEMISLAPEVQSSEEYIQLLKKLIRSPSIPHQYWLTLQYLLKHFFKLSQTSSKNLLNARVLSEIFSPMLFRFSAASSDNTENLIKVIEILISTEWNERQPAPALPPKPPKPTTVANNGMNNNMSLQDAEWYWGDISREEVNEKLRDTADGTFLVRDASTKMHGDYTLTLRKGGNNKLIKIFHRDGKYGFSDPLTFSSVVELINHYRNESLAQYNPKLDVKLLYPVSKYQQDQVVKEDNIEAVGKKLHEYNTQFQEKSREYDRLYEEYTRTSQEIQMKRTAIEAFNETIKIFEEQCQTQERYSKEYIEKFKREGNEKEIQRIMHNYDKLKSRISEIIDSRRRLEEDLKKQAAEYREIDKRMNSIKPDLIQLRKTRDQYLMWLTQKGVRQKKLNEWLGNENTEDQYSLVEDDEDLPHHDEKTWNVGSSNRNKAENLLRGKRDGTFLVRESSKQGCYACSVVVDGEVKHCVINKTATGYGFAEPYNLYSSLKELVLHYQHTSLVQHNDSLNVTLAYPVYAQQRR
Procedure: Supplementary Figure 2: Kinase selectivity of CL27e
Kinase selectivity of the CL27c active metabolite, CL27e, was evaluated at 0.02 µM and 0.2 µM using the Nanosyn 250-kinase panel. Red color indicates selectivity for PI3Kα, on which CL27e […]
Results are expressed as mean percentage inhibition for each
(1 picture or pasted object on this page, not shown here)
as §1
Two separate human lung fibroblast cell lines isolated from IPF patients were used: LL97a derived from a person (ATCC, Manassas, USA) and DHLF-IPF (#CC-7231, Lonza, Switzerland). Control cell lines were CCD-16Lu, obtained from a person that died of astrocytoma –a disease unrelated to IPF - (ATCC) and NHLF (#CC-2512; Lonza). […]
as §2

Row | Structure (SMILES) | serum-induced AKT phosphorylation [1] | Clint (intrinsic clearance) [2] [ml/min/mg prot] | t1/2 [2] [min] | inhibition of PI3Kα (PI3Kα; high concentration (0.2 µM), 0.2 µM) | inhibition of PI3Kα (PI3Kα; low concentration (0.02 µM)) [%]
1 | COC(=O)c1cccc(Cn2cc(-c3cccc4c(=O)cc(N5CCOCC5)[nH]c34)nn2)c1 [CL27c] | effectively blunted serum-induced AKT phosphorylation | 0.1 ± 0.03 | 10.2 ± 2.2 | – | –
2 | O=C(O)c1cccc(Cn2cc(-c3cccc4c(=O)cc(N5CCOCC5)[nH]c34)nn2)c1 [CL27e] | – | – | – | > 80% and 81% | 23
